The target in experiment [1] is T1, Mu-type opioid receptor (Homo sapiens, UniProt P35372). Briefly: Inhibition of [3H]DAMGO binding to human Mu opioid receptor expressed in CHO cells. Format: cell-based.
Experiment [2] addresses T2, Delta-type opioid receptor (Homo sapiens, UniProt P41143). Briefly: Inhibition of [3H]C1-DPDPE binding to human delta opioid receptor expressed in CHO cells. It counts as cell-based.
The target in experiment [3] is T3, Kappa-type opioid receptor (Homo sapiens, UniProt P41145). Nature of the experiment: Inhibition of [3H]U-69593 binding to human kappa opioid receptor expressed in CHO cells. Format: cell-based.
T3 sequence (P41145 whole entry): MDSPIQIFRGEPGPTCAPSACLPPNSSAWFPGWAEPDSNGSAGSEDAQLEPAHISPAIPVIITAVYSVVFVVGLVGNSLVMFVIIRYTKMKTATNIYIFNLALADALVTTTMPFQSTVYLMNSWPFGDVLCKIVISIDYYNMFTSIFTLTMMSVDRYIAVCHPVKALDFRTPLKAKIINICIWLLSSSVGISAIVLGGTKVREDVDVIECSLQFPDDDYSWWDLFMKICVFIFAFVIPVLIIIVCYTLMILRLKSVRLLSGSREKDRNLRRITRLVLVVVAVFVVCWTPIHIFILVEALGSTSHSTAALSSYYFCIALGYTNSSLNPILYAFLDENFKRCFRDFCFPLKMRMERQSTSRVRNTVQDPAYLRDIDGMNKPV
Experiment [4] addresses T3, Kappa-type opioid receptor.
Description: Antagonist potency towards human kappa opioid receptor in [35S]GTP-gamma-S, assay
Experiment [5] concerns the target T1, Mu-type opioid receptor.
Description: Antagonist potency towards human mu opioid receptor in [35S]GTP-gamma-S, assay
Experiment [6] has as its target T2, Delta-type opioid receptor.
Description: Antagonist potency towards human delta opioid receptor in [35S]GTP-gamma-S, assay
Experiment [7] has as its target T1, Mu-type opioid receptor. This is another data set of the same source.
Description: Agonist potency towards human mu opioid receptor in [35S]GTP-gamma-S, assay

T1 sequence (P35372 whole entry): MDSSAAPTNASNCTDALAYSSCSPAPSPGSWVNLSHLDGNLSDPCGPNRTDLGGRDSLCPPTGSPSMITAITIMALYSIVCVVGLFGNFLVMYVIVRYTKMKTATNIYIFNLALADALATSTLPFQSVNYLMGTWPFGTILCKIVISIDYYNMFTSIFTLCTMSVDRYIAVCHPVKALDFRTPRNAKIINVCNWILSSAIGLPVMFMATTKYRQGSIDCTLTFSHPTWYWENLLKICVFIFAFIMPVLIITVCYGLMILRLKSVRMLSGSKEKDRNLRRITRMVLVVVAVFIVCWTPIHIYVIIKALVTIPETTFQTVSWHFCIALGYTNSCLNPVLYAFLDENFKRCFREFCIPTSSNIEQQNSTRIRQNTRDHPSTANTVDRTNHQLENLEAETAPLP
T2 sequence (P41143 whole entry): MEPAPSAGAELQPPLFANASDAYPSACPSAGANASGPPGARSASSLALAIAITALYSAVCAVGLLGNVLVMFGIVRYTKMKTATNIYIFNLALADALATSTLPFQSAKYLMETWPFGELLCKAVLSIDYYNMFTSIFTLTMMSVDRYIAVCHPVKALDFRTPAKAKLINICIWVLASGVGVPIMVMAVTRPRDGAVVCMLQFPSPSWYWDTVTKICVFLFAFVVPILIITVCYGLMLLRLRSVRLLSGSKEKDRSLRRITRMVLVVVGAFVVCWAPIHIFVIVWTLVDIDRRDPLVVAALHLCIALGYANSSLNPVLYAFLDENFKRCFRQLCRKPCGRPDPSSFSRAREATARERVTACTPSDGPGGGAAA

In the case of `CCCNC1CCc2ccc(O)cc2C1(C)C` (configuration not stated), the Ki (as a rule, the dissociation constant of the complex between target and ligand, obtained from inhibition or displacement) is 0.491 µM on Mu-type opioid receptor [1], greater than 10 µM in experiment [2] and 0.251 µM in experiment [3].
With `Oc1ccc2c3c1O[C@H]1c4[nH]c5c(c4C[C@@]4(O)[C@@H](C2)N(CC2CC2)CC[C@]314)C[C@@]1(O)[C@H]2Cc3ccc(O)c4c3[C@@]1(CCN2CC1CC1)[C@H]5O4`, the Ke in experiment [4] was found to be 0.03 nM.
Consider `CN(CC1CC1)C1CCc2ccc(O)cc2C1(C)C` (configuration not stated), for which the values for the Ki (on Mu-type opioid receptor [1]; in experiment [2]; in experiment [3]) were 0.104 µM, 0.601 µM and 0.146 µM, respectively.
`CO[C@H]1Cc2ccc(O)cc2C(C)(C)[C@@H]1NC/C=C/c1ccccc1`: the values for the Ke (at Mu-type opioid receptor [5]; in experiment [6]; in experiment [4]) were 2.62 nM, 26.3 nM and 2.12 nM, respectively. Moreover, the Ki at Mu-type opioid receptor [1] was determined as 0.00163 µM; in experiment [2] it was 0.0224 µM; in experiment [3], 0.0075 µM.
For the molecule `CCCN(C)C1CCc2ccc(O)cc2C1(C)C` (configuration not stated), the results for the Ki (on Mu-type opioid receptor [1]; in experiment [2]; in experiment [3]) were 0.085 µM, 2.09 µM and 0.184 µM, respectively.
For `CC1(C)c2cc(O)ccc2CCC1NCC1CC1` (configuration not stated), in that order: 0.312 µM, 3.83 µM and 0.232 µM.
With `CC1(C)c2cc(O)ccc2CCC1N(C/C=C/c1ccccc1)C/C=C/c1ccccc1` (configuration not stated), the Ki at Mu-type opioid receptor [1] was 0.268 µM; in experiment [2], greater than 10 µM; in experiment [3], 1.25 µM.
As to `C=CCN(C)C1CCc2ccc(O)cc2C1(C)C` (configuration not stated), the figures for the Ki in experiment [2] and in experiment [3] were 2.22 µM and 0.263 µM, respectively.
Turning to `CN(C)C1CCc2ccc(O)cc2C1(C)C` (configuration not stated), the Ki at Mu-type opioid receptor [1] came to 0.114 µM; in experiment [2], 4.01 µM; in experiment [3] it was 0.333 µM.
In the case of `CCCN(CCC)C1CCc2ccc(O)cc2C1(C)C` (configuration not stated), the inhibition constant Ki was found to be 0.482 µM at Mu-type opioid receptor [1], 2.72 µM in experiment [2] and 0.552 µM in experiment [3].
In the case of `CO[C@H]1Cc2ccc(O)cc2C(C)(C)[C@@H]1N`, the Ki at Mu-type opioid receptor [1] was found to be 0.0175 µM; in experiment [2], 2.43 µM; in experiment [3] it was 0.149 µM. Besides, the Ke at Mu-type opioid receptor [7] stood at 234 nM; in experiment [4] it was 49.3 nM.
On to `C=CCN(CC=C)C1CCc2ccc(O)cc2C1(C)C` (configuration not stated), for which the Ki was found to be 0.105 µM on Mu-type opioid receptor [1], 0.672 µM in experiment [2] and 0.0558 µM in experiment [3].
On to `CN(C/C=C/c1ccccc1)C1CCc2ccc(O)cc2C1(C)C` (configuration not stated), for which the Ki at Mu-type opioid receptor [1] is 0.0397 µM; in experiment [2], 0.591 µM; in experiment [3], 0.207 µM.
Regarding `C=CCNC1CCc2ccc(O)cc2C1(C)C` (configuration not stated), the values for the Ki (at Mu-type opioid receptor [1]; in experiment [2]; in experiment [3]) were 0.202 µM, 5.83 µM and 0.0637 µM, respectively.
For `CC1(C)c2cc(O)ccc2CCC1N(CC1CC1)CC1CC1` (configuration not stated), in that order: 0.422 µM, 5.77 µM and 1.83 µM.
For `CC1(C)c2cc(O)ccc2CCC1NC/C=C/c1ccccc1` (configuration not stated), the Ke on Mu-type opioid receptor [5] stood at 67.7 nM; in experiment [4], 42.7 nM. Moreover, the figures for the inhibitory constant (Ki) (on Mu-type opioid receptor [1]; in experiment [2]; in experiment [3]) were 0.0107 µM, 0.472 µM and 0.0823 µM, respectively.

These data come from ChEMBL document CHEMBL1137216, “Identification of a new scaffold for opioid receptor antagonism based on the 2-amino-1,1-dimethyl-7-hydroxytetralin pharmacophore” (J Med Chem, 2004).
